Ki data for nine compounds are collected here from ChEMBL document CHEMBL1130470, “Novel inhibitors of the prenylated protein methyltransferase reveal distinctive structural requirements” (Bioorg Med Chem Lett, 1997).

The structures appear in SMILES notation. Some results are limits rather than exact numbers.

The assay in a line: In vitro inhibitory activity against prenylated protein methyltransferase (PPMTase), activity expressed as Ki(inhibitory constant). Set-up: species or system Rattus norvegicus.

With `CC(C)=CCC/C(C)=C/CC/C(C)=C/CSc1c(Cl)cccc1C(=O)O`, the Ki (usually the equilibrium dissociation constant of an inhibitor or competing ligand from its target) was > 50 µM. Turning to `CC(C)=CCC/C(C)=C/CC/C(C)=C/CC/C(C)=C/CSc1ccccc1C(=O)O`, the Ki is > 50 µM. For `CC(C)=CCC/C(C)=C/CC/C(C)=C/CSc1ccc(F)cc1C(=O)O` the value was 6.3 µM; for `CC(C)=CCC/C(C)=C/CC/C(C)=C/CSc1ccc(Cl)cc1C(=O)O`, 8.5 µM; for `CC(C)=CCC/C(C)=C/CC/C(C)=C/CSc1cc(F)ccc1C(=O)O`, 23 µM. In turn, `CC(C)=CCC/C(C)=C/CC/C(C)=C/CSc1cc(Cl)ccc1C(=O)O` had a Ki of 28 µM. The Ki values of the last two compounds are within 1.5-fold of each other. For `CC(C)=CCC/C(C)=C/CSc1ccccc1C(=O)O` the value was > 50 µM. With `COC(=O)c1ccccc1SC/C=C(\C)CC/C=C(\C)CCC=C(C)C` the figure was > 50 µM; with `CC(C)=CCC/C(C)=C/CC/C(C)=C/CSc1ccccc1C(=O)O` [SALIRASIB], 2.8 µM.
